Consider 54 molecules from patent US8741892B2, “Compounds” (Boehringer Ingelheim International GmbH, priority 2011, dated 2014).

The target of this test is T1, human recombinant mGluR5 (Homo sapiens, UniProt P41594).
T1 construct: expressed in transfected cells; host or cells: HEK 293
As to the kind of experiment: positive modulation of mGluR5, calcium based FLIPR assay. The following applies: HEK 293 cell line expressing human recombinant mGluR5; EC50 of the modulation from peak Ca fluorescence signal after glutamate at approx. 5% basal stimulation. Here is the method:
The positive modulation of mGluR5 is measured in a HEK 293 cell line expressing human recombinant mGluR5 and is detected with calcium based FLIPR assay. The cells are cultured with DMEM supplemented with 10% FCS, 2 μg/mL tetracycline, 100 μg/mL hygromycin and 500 μg/mL geneticin. The cell culture media is exchanged for tetracycline-free cell culture media 3-7 days before the assay. One day before the assay the cell culture medium is exchanged to DMEM without glutamine and phenol red and supplemented with 10% FCS, 100 μg/mL hygromycin and 500 μg/mL geneticin. On the assay day, the medium of the subconfluent cultures is removed and the cells are detached by addition of 2.5 ml EDTA (0.02%) per 175 cm2 culture flask for 1 minute. The cells are resuspend in Ringer solution (140 mM NaCl, 5 mM KCl, 2.5 mM CaCl2, 1.5 mM MgCl2, 5 mM Glucose, 10 mM Hepes; adjusted to pH 7.4 with NaOH), pooled and Ringer solution added to adjust the volume to 50 mL. The cell suspension is centrifuged for […] at 1500 U/min (425 g). The supernatant is removed and the cells washed a second time with 50 ml fresh Ringer solution and centrifuged again as before. The supernatant is again removed and the pellet resuspended in Ringer solution to 1,000,000 cells/ml (1×10^6 cells/mL). The cells are plated onto BD BioCoat Poly-D-Lysine 384 well plates (20.000 cells/well; 20 μl/well). The lid covered plates are then incubated until use at 37° C./10% CO2. For dye loading, 20 μl of Calcium-4 assay kit solution (prepared according to the manufacturer's description in Ringer solution) are added to the cells and the plates are incubated for […] 37° C. and then […] at room temperature.
Controls, Compound Dilution and Assay Execution:
Each assay plate contained wells with “high” and “low” controls:
Low controls 1% DMSO/ringer solution+basal glutamate activation (defined as 100% CTL).
High controls 10 μM CDPPB+basal glutamate activation (defined as 200% CTL).
Test compounds are dissolved and diluted in DMSO to 100-fold the desired concentrations. In a second step, the compounds are diluted in Ringer solution such that the compounds are 4-fold more concentrated than the desired final assay concentration. The final DMSO concentration was 1%.
20 μl of each compound solution are then transferred to the assay plate and the Ca2+ kinetic is measured to determine any intrinsic compound activity. After 5 mM incubation in the FLIPR device, the second stimulation with 20 μl of glutamate in Ringer solution (glutamate concentration adjusted to approximately 5% basal stimulation of the maximal possible glutamate effect) is added and the kinetic Ca2+ response of the wells was measured for the modulation effect.
The peak height of the Ca release related fluorescence signal (9-66) is used for the EC50. The EC50 of the modulation is calculated over a nonlinear regression with GraphPad Prism (Table 1).

T1 sequence (P41594 21-1212): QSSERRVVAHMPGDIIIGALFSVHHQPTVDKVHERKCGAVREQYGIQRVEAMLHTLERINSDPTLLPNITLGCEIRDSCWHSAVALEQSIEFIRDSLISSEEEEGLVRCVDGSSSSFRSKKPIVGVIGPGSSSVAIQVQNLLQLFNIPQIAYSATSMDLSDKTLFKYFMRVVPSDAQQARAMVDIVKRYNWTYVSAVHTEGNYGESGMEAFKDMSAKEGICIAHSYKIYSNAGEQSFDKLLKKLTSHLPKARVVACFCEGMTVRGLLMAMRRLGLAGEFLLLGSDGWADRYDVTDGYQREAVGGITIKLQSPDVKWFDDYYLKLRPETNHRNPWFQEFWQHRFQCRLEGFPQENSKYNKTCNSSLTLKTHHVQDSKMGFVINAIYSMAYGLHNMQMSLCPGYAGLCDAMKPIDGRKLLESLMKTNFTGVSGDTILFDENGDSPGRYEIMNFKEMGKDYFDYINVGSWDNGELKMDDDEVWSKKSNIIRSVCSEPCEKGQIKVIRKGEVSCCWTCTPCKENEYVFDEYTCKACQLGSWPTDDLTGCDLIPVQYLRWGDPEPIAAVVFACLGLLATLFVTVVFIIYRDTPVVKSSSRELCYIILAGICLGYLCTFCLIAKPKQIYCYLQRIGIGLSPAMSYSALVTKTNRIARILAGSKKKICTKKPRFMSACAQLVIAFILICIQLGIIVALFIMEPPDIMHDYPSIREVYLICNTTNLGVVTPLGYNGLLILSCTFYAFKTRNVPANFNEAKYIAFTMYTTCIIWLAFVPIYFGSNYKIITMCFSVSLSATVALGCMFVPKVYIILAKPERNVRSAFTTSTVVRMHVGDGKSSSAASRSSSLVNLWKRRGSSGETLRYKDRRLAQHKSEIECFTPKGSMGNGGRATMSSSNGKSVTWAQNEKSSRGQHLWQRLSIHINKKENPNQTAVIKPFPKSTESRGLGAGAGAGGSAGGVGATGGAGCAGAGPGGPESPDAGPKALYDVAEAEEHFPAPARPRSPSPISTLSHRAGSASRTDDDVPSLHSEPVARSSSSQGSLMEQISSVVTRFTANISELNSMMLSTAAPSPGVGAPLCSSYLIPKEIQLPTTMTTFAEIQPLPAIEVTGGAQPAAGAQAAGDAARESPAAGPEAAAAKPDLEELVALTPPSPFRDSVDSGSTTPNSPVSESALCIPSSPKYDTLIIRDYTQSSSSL

Turning to `O=C(Cn1nc(-c2ccccc2)cc1-c1ccccc1)N1CCC(c2ncc(Cl)cn2)CC1` [Example 7.01.001, 2-(3,5-diphenyl-pyrazol-1-yl)-1-(4-(5-chloro-pyrimidin-2-yl)-1-piperidinyl)-ethanon], the EC50 was found to be 1430 nM. On to `Cc1nc2c(o1)CN(C(=O)Cn1nc(-c3ccccc3)cc1-c1ccccc1)CC2` [Example 7.01.002], for which the EC50 stood at 592 nM. Next, `Cc1csc(N2CCN(C(=O)Cn3nc(-c4ccccc4)cc3-c3ccccc3)CC2)n1` [Example 7.01.003]: 1780 nM.

As to `COc1ccc2c(c1)CN(C(=O)Cn1nc(-c3ccccc3)cc1-c1ccccc1)C2` [Example 7.01.004], the EC50 is 390 nM. The same measure for `Cc1nc2c(s1)CN(C(=O)Cn1nc(-c3ccccc3)cc1-c1ccccc1)C2` [Example 7.01.005]: 381 nM; for `O=C(Cn1nc(-c2ccccc2)cc1-c1ccccc1)N1CCc2cn[nH]c2CC1` [Example 7.01.006]: 870 nM; for `COc1ccc2c(c1)CN(C(=O)Cn1nc(-c3ccccc3)cc1-c1ccccc1)CC2` [Example 7.01.007]: 1540 nM.

For `COc1ccc2c(c1)CCN(C(=O)Cn1nc(-c3ccccc3)cc1-c1ccccc1)CC2` [Example 7.01.008], the EC50 came out at 1180 nM. Regarding `O=C(Cn1nc(-c2ccccc2)cc1-c1ccccc1)N1CCc2c(F)cccc2C1` [Example 7.01.009], the EC50 was 1540 nM. Next, `O=C(Cn1nc(-c2ccccc2)cc1-c1ccccc1)N1CCc2cc(C(F)(F)F)ccc2C1` [Example 7.01.010]: 695 nM; `COc1ccccc1N1CCN(C(=O)Cn2nc(-c3ccccc3)cc2-c2ccccc2)CC1=O` [Example 7.01.011]: 1970 nM. The same measure for `C=CCNC(=O)Nc1nc2c(s1)CN(C(=O)Cn1nc(-c3ccccc3)cc1-c1ccccc1)CC2` [Example 7.01.012]: 829 nM. Next, `O=C(Cn1nc(-c2ccccc2)cc1-c1ccccc1)N1CCN(c2cccc(Br)c2)C(=O)C1` [Example 7.01.013]: 617 nM. For the molecule `O=C(Cn1nc(-c2ccccc2)cc1-c1ccccc1)N1CCN(c2ccccc2F)C(=O)C1` [Example 7.01.014], the EC50 came to 463 nM. The same measure for `COc1cccc2c1CCN(C(=O)Cn1nc(-c3ccccc3)cc1-c1ccccc1)C2` [Example 7.01.015]: 1810 nM; for `O=C(Cn1nc(-c2ccccc2)cc1-c1ccccc1)N1CCN(c2noc3ccccc23)CC1` [Example 7.01.016]: 143 nM; for `COc1ccc2c(c1)CCN(C(=O)Cn1nc(-c3ccccc3)cc1-c1ccccc1)C2` [Example 7.01.018]: 538 nM.

As for `O=C(Cn1nc(-c2ccccc2)cc1-c1ccccc1)N1CCN(c2ccc(F)cc2)C(=O)C1` [Example 7.01.019], the EC50 was found to be 1660 nM. Next, `COc1cccc(N2CCN(C(=O)Cn3nc(-c4ccccc4)cc3-c3ccccc3)CC2=O)c1` [Example 7.01.020]: 258 nM. The same measure for `CC(=O)Nc1nc2c(s1)CCN(C(=O)Cn1nc(-c3ccccc3)cc1-c1ccccc1)CC2` [Example 7.01.021]: 1530 nM; for `COC(=O)c1ccc2c(c1)CCN(C(=O)Cn1nc(-c3ccccc3)cc1-c1ccccc1)C2` [Example 7.01.022]: 511 nM.

For `Nc1nc2c(s1)CCN(C(=O)Cn1nc(-c3ccccc3)cc1-c1ccccc1)CC2` [Example 7.01.023], the EC50 was 166 nM.

For `O=C(Cn1nc(-c2ccccc2)cc1-c1ccccc1)N1CCc2c(F)ccc(F)c2C1` [Example 7.01.024], the EC50 is 1160 nM. Next, `CC1CN(C(=O)Cn2nc(-c3ccccc3)cc2-c2ccccc2)CC(C)N1C(=O)OCc1ccccc1` (stereo not drawn) [Example 7.01.025]: 1870 nM. The same measure for `O=C(Cn1nc(-c2ccccc2)cc1-c1ccccc1)N1CCc2ncnc(-c3ccccc3)c2CC1` [Example 7.01.026]: 503 nM; for `O=C(Cn1nc(-c2ccccc2)cc1-c1ccccc1)N1CCc2cc(F)ccc2C1` [Example 7.01.027]: 1020 nM; for `CC(C)NC(=O)Nc1nc2c(s1)CN(C(=O)Cn1nc(-c3ccccc3)cc1-c1ccccc1)CC2` [Example 7.01.028]: 1300 nM. Next, `CC(C)c1ncc2c(n1)CCN(C(=O)Cn1nc(-c3ccccc3)cc1-c1ccccc1)C2` [Example 7.01.029]: 796 nM; `COC(=O)c1ccc2c(c1)CCN(C(=O)Cn1nc(-c3ccccc3)cc1-c1ccccc1)CC2` [Example 7.01.030]: 484 nM; `N#Cc1ccc2c(c1)CN(C(=O)Cn1nc(-c3ccccc3)cc1-c1ccccc1)CC2` [Example 7.01.031]: 1870 nM.

With `O=C(Cn1nc(-c2ccccc2)cc1-c1ccccc1)N1Cc2nc(-c3ccccc3)sc2C1` [Example 7.01.032], the half-maximal effective concentration (EC50) was 710 nM. Next, `Nc1nnc(C2CCN(C(=O)Cn3nc(-c4ccccc4)cc3-c3ccccc3)CC2)o1` [Example 7.01.033]: 1530 nM; `O=C(Cn1nc(-c2ccccc2)cc1-c1ccccc1)N1CCN(c2cccc(F)c2)C(=O)C1` [Example 7.01.034]: 398 nM; `COc1cccc(N2CCN(C(=O)Cn3nc(-c4ccccc4)cc3-c3ccccc3)CC2=O)c1` [Example 7.01.035]: 205 nM. The same measure for `Nc1ccc2c(c1)CCN(C(=O)Cn1nc(-c3ccccc3)cc1-c1ccccc1)CC2` [Example 7.01.036]: 1320 nM; for `O=C(Cn1nc(-c2ccccc2)cc1-c1ccccc1)N1CCN(c2nnc(C(F)(F)F)s2)CC1` [Example 7.01.037]: 188 nM.

As to `Cc1nc2c(s1)CN(C(=O)Cn1nc(-c3ccccc3)cc1-c1ccccc1)C2` [Example 7.01.038], the EC50 turned out to be 359 nM. In the case of `O=C(Cn1nc(-c2ccccc2)cc1-c1ccccc1)N1CCc2c(Cl)cccc2C1` [Example 7.01.039], the EC50 was 752 nM. Take `CCNC(=O)Nc1nc2c(s1)CN(C(=O)Cn1nc(-c3ccccc3)cc1-c1ccccc1)CC2` [Example 7.01.041]: the EC50 was found to be 1550 nM. The same measure for `O=C(Cn1nc(-c2ccccc2)cc1-c1ccccc1)N1CCN(c2nnc(C(F)(F)F)s2)CC1` [Example 7.01.042]: 285 nM. The same measure for `O=C(Cn1nc(-c2ccccc2)cc1-c1ccccc1)N1CCN(c2nccs2)CC1` [Example 7.01.043]: 40 nM. The same measure for `O=C(Cn1nc(-c2ccccc2)cc1-c1ccccc1)N1CCC(c2nccs2)CC1` [Example 7.01.044]: 1850 nM; for `O=C(Cn1nc(-c2ccccc2)cc1-c1ccccc1)N1CCc2c(cccc2C(F)(F)F)C1` [Example 7.01.045]: 689 nM.

Regarding `N#Cc1ccc2c(c1)CCN(C(=O)Cn1nc(-c3ccccc3)cc1-c1ccccc1)C2` [Example 7.01.046], the EC50 turned out to be 1000 nM. Regarding `O=C(Cn1nc(-c2ccccc2)cc1-c1ccccc1)N1CCC(c2nnc(-c3ccc(F)cc3)o2)CC1` [Example 7.01.047], the EC50 amounted to 789 nM. Next, `O=C(Cn1nc(-c2ccccc2)cc1-c1ccccc1)N1CCN(c2nccc3sccc23)CC1` [Example 7.01.048]: 573 nM; `O=C(Cn1nc(-c2ccccc2)cc1-c1ccccc1)N1CCN(c2nccc3occc23)CC1` [Example 7.01.049]: 652 nM. Next, `Cc1ccc(NC2CCN(C(=O)Cn3nc(-c4ccccc4)cc3-c3ccccc3)CC2)c(C)c1` [Example 7.01.051]: 1440 nM; `Cc1cc(-c2cc(-c3ccccc3)n(CC(=O)N3CCc4cn[nH]c4CC3)n2)ccc1F` [Example 7.01.052]: 31 nM. For `N#Cc1ccc(Cl)cc1NC1CCN(C(=O)Cn2nc(-c3ccccc3)cc2-c2ccccc2)CC1` [Example 7.01.053], the concentration for a half-maximal effect (EC50) was 914 nM.

Turning to `CCc1cc(-c2ccc(F)c(C)c2)nn1CC(=O)N1CCc2nc(OC)sc2CC1` [Example 7.01.054], the concentration giving a half-maximal response (EC50) stood at 53 nM. Regarding `COCc1cc(-c2ccc(F)c(C)c2)nn1CC(=O)N1CCc2nc(C)sc2CC1` [Example 7.01.055], the EC50 is 53 nM. In the case of `COCc1cc(-c2ccc(F)c(C)c2)nn1CC(=O)N1CCc2nc(N)sc2CC1` [Example 7.01.056], the EC50 was determined as 253 nM. Next, `COCc1cc(-c2ccc(F)c(C)c2)nn1CC(=O)N1CCc2nc(C)oc2C1` [Example 7.01.057]: 740 nM.
